Measured values from patent publication US11191769B2, “Fused thiophene compounds” (BioTheryX, Inc., priority 2018, dated 2021).

Experiments:
Assay type in all cases: cell-based
[1] = system: IL-6; experiment: IL-6 inhibition assay, LPS-induced PBMCs or CD14+ monocytes, Meso Scale; conditions: 1 h pretreatment, 100 ng/mL LPS 18-24 h, supernatant
Procedure: (§1) Either frozen primary blood mononuclear cells (PBMCs) or frozen CD14+ mobilized peripheral blood monocytes were purchased from AllCells (PB003F, Normal Peripheral Blood MNC (Alameda, Calif.)). Cells were quick thawed, washed 1-time with RPMI-1640 (10% FBS/1% Pen-Strep) and plated in 96 well plates at 200,000 cells per well. Cells were pretreated with DMSO only or with the indicated compound for 1 h and then induced with 100 ng/mL lipopolysaccharide (LPS) for 18-24 h. The supernatant was analyzed for IL-1β, IL-6, and TNFα, using Meso Scale assay according to manufacturer's protocol. The negative control wells were treated with DMSO.
(§2) In each of Tables 5-7, the % inhibition values are reported as “A”, “B”, “C”, or “D”. “A” represents a % inhibition value of less than 50% (value <50%). “B” represents a % inhibition value of equal to or more than 50% and less than 70% (50%≤value<70%). “C” represents a % inhibition value of equal to or more than 70% and less than 90% (70%≤value<90%). “D” represents a % inhibition value of equal or more than 90% (value≥90%). In Table 8, the fold-change values are reported as “A”, “B”, “C”, or “D”. “A” represents a fold-change value of equal to or less than 1 (value≤1). “B” represents a fold-change value of more than 1 and equal to or less than 2 (1<value≤2). “C” represents a fold-change value of more than 2 and equal to or less than 3 (2<value≤3). “D” represents a fold-change value of more than 3 (value>3).

[2] = system: IL-2; experiment: IL-2 fold-change assay, anti-CD3 stimulated PBMCs, Mesoscale; conditions: PBMC, PBMCs on anti-human CD3 (OKT3) coated plates, 24 h, fold difference from the DMSO control
Procedure: For the IL-2 analysis, 96 well plates were precoated with 1 μg/mL anti-human CD3 antibody (OKT3, eBioscience Inc., San Diego, Calif.). After washing with PBS, the indicated compound was added (50 μL/well) followed by PBMCs diluted at 3-4 million cells/mL (150 μL/well). Plates were incubated for 24 h and the supernatants collected for Mesoscale IL-2 analysis. IL-2 activity is measured as fold difference from the DMSO control.
as §2

[3] = system: IL-1β; experiment: IL-1β inhibition assay, LPS-induced PBMCs or CD14+ monocytes, Meso Scale; conditions: 1 h pretreatment, 100 ng/mL LPS 18-24 h, supernatant, read-out: I1-1β % Inhibition at 10 μM
Procedure: as §1, §2

[4] = molecular target: T1, GSPT1 (Homo sapiens, UniProt P15170+Q96SW2); experiment: GSPT1 degradation assay (Western blot, MV-4-11 cells); conditions: 6-8 hours
T1 construct: Whole cell extracts were prepared using RIPA buffer; endogenous in cells; host or cells: MV-4-11
T1 sequence (P15170 whole entry): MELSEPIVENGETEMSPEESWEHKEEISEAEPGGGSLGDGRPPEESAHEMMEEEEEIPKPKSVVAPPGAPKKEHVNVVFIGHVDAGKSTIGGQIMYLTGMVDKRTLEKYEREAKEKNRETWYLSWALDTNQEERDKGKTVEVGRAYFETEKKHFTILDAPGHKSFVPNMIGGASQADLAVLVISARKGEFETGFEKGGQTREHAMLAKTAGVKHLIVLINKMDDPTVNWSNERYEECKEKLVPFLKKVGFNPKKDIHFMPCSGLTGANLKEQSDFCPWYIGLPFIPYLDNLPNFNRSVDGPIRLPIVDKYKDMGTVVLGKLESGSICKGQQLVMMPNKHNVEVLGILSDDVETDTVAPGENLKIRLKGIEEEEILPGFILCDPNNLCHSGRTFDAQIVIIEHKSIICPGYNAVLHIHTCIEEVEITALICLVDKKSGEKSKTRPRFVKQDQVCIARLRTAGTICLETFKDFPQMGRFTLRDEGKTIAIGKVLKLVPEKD
T1 sequence (Q96SW2 whole entry): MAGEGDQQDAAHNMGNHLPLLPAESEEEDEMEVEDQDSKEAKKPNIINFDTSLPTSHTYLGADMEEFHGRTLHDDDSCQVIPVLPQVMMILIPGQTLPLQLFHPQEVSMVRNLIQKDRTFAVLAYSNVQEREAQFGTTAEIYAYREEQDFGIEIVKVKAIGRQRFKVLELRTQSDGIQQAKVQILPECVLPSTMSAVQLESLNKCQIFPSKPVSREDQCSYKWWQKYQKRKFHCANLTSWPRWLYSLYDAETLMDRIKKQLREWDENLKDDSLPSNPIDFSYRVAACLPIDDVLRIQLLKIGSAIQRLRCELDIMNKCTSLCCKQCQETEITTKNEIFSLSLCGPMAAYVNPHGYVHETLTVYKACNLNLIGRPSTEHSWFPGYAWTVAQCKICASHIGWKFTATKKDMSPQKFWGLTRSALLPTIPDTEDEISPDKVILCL
T1 sequence (Q16531 whole entry partner): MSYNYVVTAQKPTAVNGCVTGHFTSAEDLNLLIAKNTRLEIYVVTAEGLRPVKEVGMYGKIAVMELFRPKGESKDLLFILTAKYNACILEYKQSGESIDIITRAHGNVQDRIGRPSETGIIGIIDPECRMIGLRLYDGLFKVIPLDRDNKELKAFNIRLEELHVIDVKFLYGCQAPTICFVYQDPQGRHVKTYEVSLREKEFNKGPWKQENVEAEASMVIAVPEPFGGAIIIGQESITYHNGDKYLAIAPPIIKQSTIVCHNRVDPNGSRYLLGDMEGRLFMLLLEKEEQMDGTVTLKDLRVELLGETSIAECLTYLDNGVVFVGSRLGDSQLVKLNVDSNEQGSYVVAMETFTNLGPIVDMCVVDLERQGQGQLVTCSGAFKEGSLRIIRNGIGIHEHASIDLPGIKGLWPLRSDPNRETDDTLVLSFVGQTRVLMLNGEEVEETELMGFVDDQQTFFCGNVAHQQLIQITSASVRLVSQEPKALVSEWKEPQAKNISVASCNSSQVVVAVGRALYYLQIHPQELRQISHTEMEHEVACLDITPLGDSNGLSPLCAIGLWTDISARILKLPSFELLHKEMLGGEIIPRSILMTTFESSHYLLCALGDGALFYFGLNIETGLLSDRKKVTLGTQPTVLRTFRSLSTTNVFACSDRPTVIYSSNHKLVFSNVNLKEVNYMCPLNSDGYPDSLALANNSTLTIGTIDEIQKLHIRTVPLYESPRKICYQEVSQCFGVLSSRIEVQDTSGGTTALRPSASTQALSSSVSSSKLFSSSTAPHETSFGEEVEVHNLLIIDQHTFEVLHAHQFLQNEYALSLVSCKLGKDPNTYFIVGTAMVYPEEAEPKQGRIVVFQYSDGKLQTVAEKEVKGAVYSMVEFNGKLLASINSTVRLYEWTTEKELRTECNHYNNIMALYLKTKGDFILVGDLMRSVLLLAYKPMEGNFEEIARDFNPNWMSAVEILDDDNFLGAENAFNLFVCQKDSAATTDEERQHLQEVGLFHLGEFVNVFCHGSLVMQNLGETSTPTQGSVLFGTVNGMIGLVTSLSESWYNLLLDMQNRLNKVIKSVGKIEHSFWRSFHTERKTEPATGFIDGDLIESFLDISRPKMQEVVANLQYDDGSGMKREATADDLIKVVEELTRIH
Procedure: (§3) MV-4-11 cells were grown in RPMI 1640 media supplemented with 10% fetal bovine serum, streptomycin and penicillin.
(§4) Cells were cultured at approximately 10^6 cells per mL and incubated in DMSO or the indicated compound for 6-8 hours. Whole cell extracts were prepared using RIPA buffer according to manufacturer's protocol (Pierce). Briefly, 3×10^6 cells were washed once in PBS, the cell pellets were resuspended in RIPA buffer and allowed to incubate for 15 minutes on ice. Cells debris was removed by centrifugation and the cleared whole cell lysates were transferred to new tubes for further analysis.
(§5) For Western blot analysis, whole cell protein extracts were separated on 4-12% SDS-polyacrylamide gels, transferred to nitrocellulose and probed with the indicated primary antibodies. Membranes were subsequently washed and probed with the appropriate IRDye secondary antibodies (LI-COR). The signal was detected using the Odyssey Imaging System (LI-COR).
(§6) The following antibodies were used in these studies: Anti-eRF3/GSPT1: Abcam, ab126090 (Cambridge, Mass.); Anti-Ikaros: Abcam, ab191394 (Cambridge, Mass.); Anti-CK1α: Abcam, ab108296 (Cambridge, Mass.); β-actin (8H10D10) mouse monoclonal antibody: Cell Signaling Technology, #3700 (Danvers, Mass.); IRDye 680RD Goat anti-rabbit antibody: LI-COR, 926-68071 (Lincoln, Nebr.); IRDye 800CW Goat anti-mouse antibody: LI-COR, 926-32210 (Lincoln, Nebr.).
(§7) In each of Tables 1-4, the % degradation values are reported as “A”, “B”, “C”, or “D”. “A” represents a % degradation value of less than 25% (value<25%). “B” represents a % degradation value of equal to or more than 25% and less than 50% (25%≤value<50%). “C” represents a % degradation value of equal to or more than 50% and less than 75% (50%≤value <75%). “D” represents a % degradation value of equal to or more than 75% (value≥75%).

[5] = system: TNFα; experiment: TNF-α inhibition assay, LPS-induced PBMCs or CD14+ monocytes, Meso Scale; conditions: 1 h pretreatment, 100 ng/mL LPS 18-24 h, supernatant
Procedure: as §1, §2

[6] = molecular target: T2, IKAROS (Homo sapiens, UniProt Q13422+Q96SW2); experiment: IKAROS degradation assay (Western blot, MV-4-11 cells); conditions: 6-8 hours; for IKAROS % degradation at 1 µM: MV4-11, 1 μM
T2 construct: endogenous in cells; host or cells: MV-4-11
T2 sequence (Q13422 whole entry): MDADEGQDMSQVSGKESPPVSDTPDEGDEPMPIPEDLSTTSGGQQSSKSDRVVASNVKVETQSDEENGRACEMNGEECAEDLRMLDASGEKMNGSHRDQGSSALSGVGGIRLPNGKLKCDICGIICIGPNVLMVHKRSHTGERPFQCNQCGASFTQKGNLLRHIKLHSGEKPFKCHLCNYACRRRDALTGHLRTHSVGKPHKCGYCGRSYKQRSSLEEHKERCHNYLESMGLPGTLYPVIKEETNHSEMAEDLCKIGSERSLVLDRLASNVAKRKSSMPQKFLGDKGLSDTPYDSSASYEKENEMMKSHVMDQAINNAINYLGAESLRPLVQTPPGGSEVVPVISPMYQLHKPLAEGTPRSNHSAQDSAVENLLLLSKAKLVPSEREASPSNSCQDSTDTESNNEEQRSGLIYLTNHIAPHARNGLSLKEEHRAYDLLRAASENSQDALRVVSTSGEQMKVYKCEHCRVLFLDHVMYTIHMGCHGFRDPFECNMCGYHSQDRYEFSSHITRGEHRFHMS
T2 sequence (Q96SW2 whole entry): as the sequence (Q96SW2 whole entry) above
T2 sequence (Q16531 whole entry partner): as the sequence (Q16531 whole entry partner) above
Procedure: as §3, §4, §5, §6, §7

[7] = system: MOLM-13 cells; experiment: MOLM-13 cell viability assay (CellTiter-Glo); conditions: Homo sapiens, MOLM-13, 72 h, 3 days, % of DMSO control
Procedure: MOLM-13 cells were cultured in RPMI 1640 media supplemented with 10% fetal bovine serum, streptomycin and penicillin, and were plated in white walled 96-well plates at 2500 cells/well. Cells were incubated in DMSO (control) or the indicated compound for 3 days at 37° C. and 5% CO2. Following the incubation period, 100 μL of CellTiterGlow (CTG) reagent (CellTiter-Glo® Luminescent Cell Viability Assay, Promega (Madison, Wis.)) was added to each well. Following a 10 minutes incubation with shaking, luminescence was measured using the EnVision Multimode plate reader.
The MOLM-13 cell viability values as % DMSO are reported as “A”, “B”, “C”, or “D”. “A” represents a % viability value of less than 25% (value<25%). “B” represents a % viability value of equal to or more than 25% and less than 50% (25%≤value<50%). “C” represents a % viability value of equal to or more than 50% and less than 75% (50%≤value<75%). “D” represents a % viability value of equal or more than 75% (value≥75%).

[8] = molecular target: T3, CK1α (Homo sapiens, UniProt P48729+Q96SW2); experiment: CK1α degradation assay (Western blot, MV-4-11 cells); conditions: MV4-11, 6-8 hours
T3 construct: Whole cell extracts were prepared using RIPA buffer; endogenous in cells; host or cells: MV-4-11
T3 sequence (P48729 whole entry): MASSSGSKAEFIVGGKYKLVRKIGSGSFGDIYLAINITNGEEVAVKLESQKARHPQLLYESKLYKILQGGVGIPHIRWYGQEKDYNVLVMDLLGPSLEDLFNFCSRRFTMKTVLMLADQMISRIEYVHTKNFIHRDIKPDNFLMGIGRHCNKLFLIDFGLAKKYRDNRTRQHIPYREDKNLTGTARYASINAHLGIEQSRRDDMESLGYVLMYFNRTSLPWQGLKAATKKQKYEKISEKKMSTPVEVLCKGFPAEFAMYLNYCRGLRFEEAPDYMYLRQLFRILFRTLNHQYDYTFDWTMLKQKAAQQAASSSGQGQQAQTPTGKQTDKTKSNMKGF
T3 sequence (Q96SW2 whole entry): as the sequence (Q96SW2 whole entry) above
T3 sequence (Q16531 whole entry partner): as the sequence (Q16531 whole entry partner) above
Procedure: as §3, §4, §5, §6, §7

Row | IKAROS % degradation at 1 µM [6] [%] | percent degradation at 1 µM [8] [%] | SMILES | inhibition at 10 µM [1] [%] | fold induction at 10 µM [2] | inhibition at 10 µM [3] [%] | GSPT1 % Degradation at 1 μM [4] | inhibition at 10 µM [5] [%] | viability at 10 µM [7] [%] | IKAROS % Degradation at 10 μM ([6]; 10 μM)
1 | 50 to 75 | ≥ 75 | CC1COCC(C)N1Cc1ccc(OCc2scc3c2CN([C@H]2CCC(=O)NC2=O)C3=O)cc1 (stereo partly drawn) [Compound 19, (3S)-3-(1-((4-((3,5-dimethylmorpholino)methyl)phenoxy)methyl)-4-oxo-4H-thieno[3,4-c]pyrrol-5(6H)-yl)piperidine-2,6-dione] | < 50 | ≤ 1 | 70 to 90 | C (“C” represents a % degradation value of equal to or more than 50% and less than 75% (50%≤value <75%)) | 70 to 90 | 50 to 75 | –
2 | ≥ 75 | ≥ 75 | O=C1CC[C@H](N2Cc3c(csc3COc3ccc(CN4CCOCC4)cc3)C2=O)C(=O)N1 [Compound 1, (S)-3-(1-((4-(morpholinomethyl)phenoxy)methyl)-4-oxo-4H-thieno[3,4-c]pyrrol-5(6H)-yl)piperidine-2,6-dione] | 50 to 70 | 1 to 2 | > 90 | C (“C” represents a % degradation value of equal to or more than 50% and less than 75% (50%≤value <75%)) | – | 50 to 75 | –
3 | 25 to 50 | 50 to 75 | O=C1CC[C@H](N2Cc3c(csc3COc3ccc(CN4CCCC4)cc3)C2=O)C(=O)N1 [Compound 13, (S)-3-(4-oxo-1-((4-(pyrrolidin-1-ylmethyl)phenoxy)methyl)-4H-thieno[3,4-c]pyrrol-5(6H)-yl)piperidine-2,6-dione] | 50 to 70 | 2 to 3 | > 90 | – | > 90 | 50 to 75 | –
4 | – | – | O=C1CC[C@H](N2Cc3c(OCc4ccc(CN5CCOCC5)cc4)csc3C2=O)C(=O)N1 [Compound 2, (S)-3-(3-((4-(morpholinomethyl)benzyl)oxy)-6-oxo-4H-thieno[2,3-c]pyrrol-5(6H)-yl)piperidine-2,6-dione] | – | 1 to 2 | < 50 | B (“B” represents a % degradation value of equal to or more than 25% and less than 50% (25%≤value<50%)) | < 50 | – | –
5 | – | 50 to 75 | CCN(CC)Cc1ccc(OCc2scc3c2CN([C@H]2CCC(=O)NC2=O)C3=O)cc1 [Compound 14, (S)-3-(1-((4-((diethylamino)methyl)phenoxy)methyl)-4-oxo-4H-thieno[3,4-c]pyrrol-5(6H)-yl)piperidine-2,6-dione] | < 50 | 2 to 3 | 70 to 90 | – | 70 to 90 | 50 to 75 | B (“B” represents a % degradation value of equal to or more than 25% and less than 50% (25%≤value<50%))
6 | 25 to 50 | 25 to 50 | O=C1CCC(N2Cc3c(CCc4ccc(CN5CCOCC5)cc4)csc3C2=O)C(=O)N1 (stereo not shown) [Compound 4] | – | 2 to 3 | – | B (“B” represents a % degradation value of equal to or more than 25% and less than 50% (25%≤value<50%)) | – | – | –
